Test system: GIRK currents
Assay: patch clamp assay, control treatment with Pertussis toxin or GIRK inhibitor
Type: cell-based, human
Conditions: Tertiapin 100 nM, pertussis toxin 100 ng/ml overnight
Experimental: HEK 293 cells expressing HKIR3.1/3.2 channel and human somatostatin receptor 2 were treated with these compounds, and whole cell patch-clamp current recordings taken.
Whole cell patch-clamp current recordings were performed with an Axopatch 200B amplifier (Axon Instruments) using fire-polished pipettes with a resistance of 3-4 MΩ pulled from filamented borosilicated glass capillaries (Harvard Apparatus, 1.5 mm OD×1.17 mm ID). Data was acquired and analysed via a Digidata 1322A interface (Axon Instruments) and pCLAMP software (version 8.1, Axon Instruments). A fast perfusion system was used to apply somatostatin and analogues (Rapid Solution Changer, RSC-160, Bio-Logic France). Cells were clamped at −60 mV. The extracellular solution was (mM): NaCl 80, KCl 60, CaCl22, MgCl21, HEPES 10, NaH2PO4 0.33, glucose 10, pH 7.4; while the intracellular solution was (mM): K gluconate 110, KCl 20, NaCl 10, MgCl2 1, MgATP 2, EGTA 2 GTP 0.3, pH 7.4. After agonist application, current activated with a delay “lag” followed by a rapid rise to peak amplitude “time to peak”. After removal of the agonist, the current decays back to baseline. For each cell it was assessed if flow artifacts resulting from the pressure of drug application were present. This was done by applying bath solution from one of the sewer pipes at the beginning of the recordings. […]

| Substance | GIRK currents when cells were treated with control inhibitor |
| --- | --- |
| Pertussis toxin | currents were largely inhibited |
| Tertiapin Q | currents were largely inhibited |

— patent US20120190814A1, “Thiol Protecting Group” (UCL BUSINESS PLC, priority 2009, published 2012)
